Measured values as given in US7741327B2 (Hoffmann-La Roche Inc., priority 2008, dated 2010).

Target: T1, Recombinant human liver GK1 (GST-GK) (Homo sapiens, UniProt P35557)
T1 construct: made in house; host or cells: E. coli
T1 sequence (P35557 1-466 isoform P35557-2): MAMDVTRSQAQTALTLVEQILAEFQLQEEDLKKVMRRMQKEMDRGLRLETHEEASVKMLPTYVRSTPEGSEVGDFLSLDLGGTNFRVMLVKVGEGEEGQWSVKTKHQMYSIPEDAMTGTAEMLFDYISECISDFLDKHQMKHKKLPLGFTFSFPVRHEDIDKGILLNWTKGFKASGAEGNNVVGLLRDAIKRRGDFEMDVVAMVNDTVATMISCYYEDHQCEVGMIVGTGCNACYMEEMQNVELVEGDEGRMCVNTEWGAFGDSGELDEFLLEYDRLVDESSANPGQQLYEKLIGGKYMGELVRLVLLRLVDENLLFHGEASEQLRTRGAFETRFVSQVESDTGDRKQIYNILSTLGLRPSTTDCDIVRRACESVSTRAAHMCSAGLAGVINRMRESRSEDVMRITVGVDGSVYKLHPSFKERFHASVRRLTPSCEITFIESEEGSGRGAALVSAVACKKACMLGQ
Assay: In vitro glucokinase activity (G6PDH-coupled NADH assay)
Type: biochemical
Details: for SC1.5 (concentration of activator that produced a 50% increase in the activity of GK): 30° C., 5 mM D-glucose, 10% DMSO
In short: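 Activation measured as the rate of OD340 rise from G6PDH-coupled NADH production, relative to 10% DMSO control, reported as SC1.5 (concentration for 50% activity increase). Conditions: 30° C, pH 7.1 Hepes, 5 mM glucose, 1 mM ATP, purified recombinant GST-human GK1, compound preincubated 10 min before enzyme addition.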

| SC1.5 (concentration of activator that produced a 50% increase in the activity of GK) [µM] | fold act. @ 30 μM (at 30 μM test compound) [fold] | SMILES |
| --- | --- | --- |
| 16.154 |  | CC[C@@H](C)C[C@H](C(=O)Nc1ccn(C[C@@H](O)CO)n1)N1CC(Oc2ccccc2Cl)=CC1=O (single isomer, unassigned) [Example 254] |
| 0.72 |  | Cc1ccccc1OC1=CC(=O)N([C@@H](CC(C)C)C(=O)Nc2ccn(C)n2)C1 [Example 120, (S)-4-Methyl-2-(2-oxo-4-o-tolyloxy-2,5-dihydro-pyrrol-1-yl)-pentanoic acid (1-methyl-1H-pyrazol-3-yl)-amide] |
| 2.231 |  | COc1ccccc1OC1=CC(=O)N([C@@H](CC2CCCO2)C(=O)Nc2ccn(CC(C)(C)O)n2)C1 (stereo partly drawn) [Example 178, (S)-N-[1-(2-hydroxy-2-methyl-propyl)-1H-pyrazol-3-yl]-2-[4-(2-methoxy-phenoxy)-2-oxo-2,5-dihydro-pyrrol-1-yl]-3-(tetrahydro-furan-2-yl)-propionamide] |
| 0.681 |  | CC(C)Oc1ccccc1OC1=CC(=O)N([C@@H](CC2CCCCC2)C(=O)Nc2ccn(CC(C)(C)O)n2)C1 [Example 195, (S)-3-cyclohexyl-N-[1-(2-hydroxy-2-methyl-propyl)-1H-pyrazol-3-yl]-2-[4-(2-isopropoxy-phenoxy)-2-oxo-2,5-dihydro-pyrrol-1yl]-propionamide] |
| 0.99 |  | CC(C)(O)Cn1ccc(NC(=O)[C@H](CC2CCCCC2)N2CC(OCC3COc4ccccc4O3)=CC2=O)n1 (stereo partly drawn) [Example 60, (S)-3-Cyclohexyl-2-[4-(2,3-dihydro-benzo[1,4]dioxin-2-ylmethoxy)-2-oxo-2,5-dihydro-pyrrol-1-yl]-N-[1-(2-hydroxy-2-methyl-propyl)-1-H-pyrazol-3-yl]-propionamide] |
| 3.575 |  | COc1cccc(OC2=CC(=O)N(C(CC(C)(C)F)C(=O)Nc3ccn(C[C@@H](O)CO)n3)C2)c1Cl (stereo partly drawn) [Example 170, 2-[4-(2-Chloro-3-methoxyphenoxy)-2-oxo-2,5-dihydro-pyrrol-1-yl]-4-fluoro-4-methyl-pentanoic acid-[1-((R)-2,3-dihydroxy-propyl)-1H-pyrazol-3-yl]-amide] |
| 0.2 |  | CCOc1cccc(OC2=CC(=O)N([C@@H](CC(C)C)C(=O)Nc3cnc([C@H]4COC(C)(C)O4)cn3)C2)c1F [Example 150, (S)-2-[4-(3-Ethoxy-2-fluoro-phenoxy)-2-oxo-2,5-dihydro-pyrrol-1-yl]-4-methyl-pentanoic acid [5-((S)-2,2-dimethyl-[1,3]dioxolan-4-yl)-pyrazin-2-yl]-amide] |
| 16.668 |  | CC(C)(C)CCC(C(=O)Nc1ccn(C[C@@H](O)CO)n1)N1CC(Oc2ccccc2Cl)=CC1=O (stereo partly drawn) [Example 227, 2-[4-(2-Chloro-phenoxy)-2-oxo-2,5-dihydro-pyrrol-1-yl]-5,5-dimethyl-hexanoic acid [1-((R)-2,3-dihydroxy-propyl)-1H-pyrazol-3-yl]amide] |
| 0.304 |  | CC[C@H](C)CC(C(=O)Nc1ccn(C[C@@H]2COC(C)(C)O2)n1)N1CC(Oc2ccccc2Cl)=CC1=O (mixture of isomers) [Example 248, (S)-2-[4-(2-Chloro-phenoxy)-2-oxo-2,5-dihydro-pyrrol-1-yl]-4-methyl-hexanoic acid [1-((R)-2,2-dimethyl-[1,3]dioxolan-4-ylmethyl)-1H-pyrazol-3-yl]-amide] |
| 2.867 |  | O=C(Nc1ccn(C[C@@H](O)CO)n1)C(CC1(F)CCCC1)N1CC(Oc2c(F)cccc2F)=CC1=O (stereo partly drawn) [Example 159, 2-[4-(2,6-Difluoro-phenoxy)-2-oxo-2,5-dihydro-pyrrol-1-yl]-N-[1-((R)-2,3-dihydroxy-propyl)-1H-pyrazol-3-yl]-3-(1-fluoro-cyclopentyl)-propionamide] |
| 3.478 |  | CCc1nsc(NC(=O)[C@H](CC(C)C)N2CC(Oc3ccccc3Cl)=CC2=O)n1 [Example 110, (S)-2-[4-(2-Chloro-phenoxy)-2-oxo-2,5-dihydro-pyrrol-1-yl]-4-methyl-pentanoic acid (3-ethyl-[1,2,4]thiadiazol-5-yl)-amide] |
| 0.054 |  | Cc1ccc(OC2=CC(=O)N([C@@H](CC3CCCCC3)C(=O)Nc3ccn(CC(C)(C)O)n3)C2)cn1 [Example 212, (S)-3-cyclohexyl-N-[1-(2-hydroxy-2-methyl-propyl)-1H-pyrazol-3-yl]-2-[4-(6-methyl-pyridin-3-yloxy)-2-oxo-2,5-dihydro-pyrrol-1-yl]-propionamide] |
| 15.278 |  | O=C(Nc1ccn(C[C@@H](O)CO)n1)[C@H](CCO)N1CC(Oc2ccccc2Cl)=CC1=O [Example 222, (S)-2-[4-(2-Chloro-phenoxy)-2-oxo-2,5-dihydro-pyrrol-1-yl]-N-[1-((R)-2,3-dihydroxy-propyl)-1H-pyrazol-3-yl]-4-hydroxy-butyramide] |
| 4.985 |  | COC1=CC(=O)N([C@@H](CC2CCCCC2)C(=O)Nc2ccn(CC(C)(C)O)n2)C1 [Example 56, (S)-3-Cyclohexyl-N-[1-(2-hydroxy-2-methyl-propyl)-1H-pyrazol-3-yl]-2-(4-methoxy-2-oxo-2,5-dihydro-pyrrol-1-yl)-propionamide] |
| 1.048 |  | COC(C)(C)Cn1ccc(NC(=O)[C@H](CC2CCCC2)N2CC(OC(C)C)=CC2=O)n1 [Example 22, (S)-3-Cyclopentyl-N-[1-(2-methoxy-2-methyl-propyl)-1H-pyrazol-3-yl]-2-(4-isopropoxy-2-oxo-2,5-dihydro-pyrrol-1-yl)-propionamide] |
| 0.161 |  | CC(C)(O)Cn1ccc(NC(=O)[C@H](CC2CCCCO2)N2CC(Oc3cccc(Cl)c3Cl)=CC2=O)n1 (stereo partly drawn) [Example 92, (S)-2-[4-(2,3-Dichloro-phenoxy)-2-oxo-2,5-dihydro-pyrrol-1-yl]-N-[1-(2-hydroxy-2-methyl-propyl)-1H-pyrazol-3-yl]-3-(tetrahydro-pyran-2-yl)-propionamide] |
| > 30 | 1.4 | CC(C)(O)Cn1ccc(NC(=O)C(Cc2c(Cl)cccc2Cl)N2CC(Oc3c(F)cccc3F)=CC2=O)n1 (stereo not drawn) [Example 225, 3-(2,6-Dichloro-phenyl)-2-[4-(2,6-difluoro-phenoxy)-2-oxo-2,5-dihydro-pyrrol-1-yl]-N-[1-(2-hydroxy-2-methyl-propyl)-1H-pyrazol-3-yl]-propionamide] |
| 4.538 |  | CC(F)(F)C[C@@H](C(=O)Nc1ccn(C[C@@H](O)CO)n1)N1CC(Oc2ccccc2Cl)=CC1=O [Example 218, (S)-2-[4-(2-Chloro-phenoxy)-2-oxo-2,5-dihydro-pyrrol-1-yl]-4,4-difluoro-pentanoic acid [1-((R)-2,3-dihydroxy-propyl)-1H-pyrazol-3-yl]-amide] |
| 2.013 |  | CC(C)C[C@@H](C(=O)Nc1ccn(C[C@@H]2COC(C)(C)O2)n1)N1CC(Oc2ccccc2Br)=CC1=O [Example 136, (S)-2-[4-(2-Bromo-phenoxy)-2-oxo-2,5-dihydro-pyrrol-1-yl]-4-methyl-pentanoic acid [1-((R)-2,2-dimethyl-[1,3]dioxolan-4-yl-methyl)-1H-pyrazol-3-yl]-amide] |
| 0.211 |  | CC(C)C[C@@H](C(=O)Nc1ccn(C[C@@H](O)CO)n1)N1CC(Oc2cccc(Cl)c2Cl)=CC1=O.Cl [Example 80, (S)-2-[4-(2,3-Dichloro-phenoxy)-2-oxo-2,5-dihydro-pyrrol-1-yl]-4-methyl-pentanoic acid [1-((R)-2,3-dihydroxy-propyl)-1H-pyrazol-3-yl]-amide Hydrochloride] |
| 0.165 |  | O=C(Nc1ccn(C[C@@H](O)CO)n1)C(CC1CCOCC1)N1CC(Oc2c(F)cccc2F)=CC1=O (stereo partly drawn) [Example 44, 2-[4-(2,6-Difluoro-phenoxy)-2-oxo-2,5-dihydro-pyrrol-1-yl]-N-[1-((R)-2,3-dihydroxy-propyl)-1H-pyrazol-3-yl]-3-(tetrahydro-pyran-4-yl)-propionamide] |
| 0.303 |  | CSCC[C@@H](C(=O)Nc1ccn(C[C@@H](O)CO)n1)N1CC(Oc2ccccc2Cl)=CC1=O [Example 223, (S)-2-[4-(2-Chloro-phenoxy)-2-oxo-2,5-dihydro-pyrrol-1-yl]-N-[1-((R)-2,3-dihydroxy-propyl)-1H-pyrazol-3-yl]-4-methylsulfanyl-butyramide] |
| 1.365 |  | COC1=CC(=O)N([C@@H](CC2CCCC2)C(=O)Nc2ncc(F)s2)C1 [Example 8, (S)-3-Cyclopentyl-N-(5-fluoro-thiazol-2-yl)-2-(4-methoxy-2-oxo-2,5-dihydro-pyrrol-1-yl)-propionamide] |
